The text below walks through data of US8912163B2, “Compositions for the treatment or prophylaxis of viral infections” (Katholieke Universiteit Leuven, priority 2007, dated 2014).

In brackets after ≈: the same amount, converted by molar mass. Where two headings read alike, the source gives them in different places.

The nature of data set [1]: Water-solubility by HPLC. Particulars: deionised water, room temperature; for Solubility in water: overnight, means of three determinations. Type of data set: physicochemical. The method, then:
HPLC was carried out on a Waters 484 System using Novapack C18 reverse phase column. Flow rate: 1 mL/min. Detection: UV 254 nm. […] The samples were centrifuged at 14.000 rpm in an Eppendorf micro-centrifuge for 1.5 min at room temperature. An aliquot of the clear supernatant was removed and diluted to a concentration within the range of a five-point standard curve. Water-solubility was calculated from each peak area of the above solution by HPLC compared with the sample dissolved in acetonitrile, the concentration of which is already known.

Data set [2] concerns HEL cells. Put plainly: in vitro. Type of data set: cell-based.
Data set [3] in a line: in vitro. The data set is classed as cell-based. Particulars: human.
In data set [4] the test system is VZV. Put plainly: Anti-VZV activity in VZV-infected HEL cell cultures (general statements). Particulars: HEL cells. Type of data set: cell-based, Varicella Zoster virus. The method, then:
The objective of this study was to compare the antiviral activity of Compounds 1, 3, 5, 7 and 9 in HEL cells inoculated with VZV strains. Antiviral activity was assessed as the ability of Compounds 1, 3, 5, 7 and 9 to reduce viral plaque formation after incubation periods of 5 days as compared to untreated control cultures.
(§1) VZV-drug susceptibility assays were performed on confluent HEL cells in 96-well microtiter plates. Monolayers were infected with 20 PFU of cell-associated virus per well. For each assay, virus controls (infected-untreated cells) were included. After a 2-hour incubation period, the virus inoculum was removed and the media replaced by the different dilutions (in duplicate) of the tested molecules. Serial dilutions of test compounds were incubated with the infected monolayers for 5 days. After the 5-day incubation period, the cells were fixed and stained with Giemsa, and the level of virus-induced cytopathic effect was determined by counting the number of plaques for each dilution.

Data set [5] relates to VZV TK+ OKA. Description: VZV plaque reduction in HEL cells, TK+ strain OKA. The data set is classed as cell-based, Varicella Zoster virus. The method, then: as §1
Data set [6] concerns VZV TK− 07/1. Put plainly: VZV plaque reduction in HEL cells, TK- strain 07/1. The data set is classed as cell-based, Varicella Zoster virus. The method, then: as §1
Data set [7] concerns VZV TK+ YS. Put plainly: VZV plaque reduction in HEL cells, TK+ strain YS. Type of data set: cell-based, Varicella Zoster virus. Particulars: 5 days. How it is done:
as §1

Data set [8] in a line: Conversion in bovine serum (10%). The data set is classed as in vitro ADME. Particulars: Bovine serum 10% in PBS, 37° C. How it is done:
(§2) A variety of test compounds have been evaluated for their substrate activity against purified CD26, human serum (HS), and bovine serum (BS) in Eppendorf tubes. The 400 μL reaction mixture contained 50 μM of test compound in PBS (containing 0.1% DMSO). […] At different time points, 100 μL was withdrawn from the reaction mixture, added to 200 μL methanol, and put on ice for ˜10 min. Then, the mixture was centrifuged at 13,000 rpm for 5 min at 4° C. and 250 μL of supernatant was analyzed by HPLC on a reverse phase RP-8 column, using following gradients: […]
(§3) Gradient A (Buffer A: 50 mM NaH2PO4+5 mM heptane-sulfonic acid pH 3.2; buffer B: acetonitrile): 2 min 98% A+2% B; 6 min linear gradient to 80% A+20% B; 2 min linear gradient to 75% A+25% B; 2 min linear gradient to 65% A+35% B; 18 min linear gradient to 50% A+50% B; 5 min 50% A+50% B; 5 min linear gradient to 98% A+2% B; 5 min equilibration at 98% A+2% B.
(§4) Gradient B: 2 min 98% A+2% B; 6 min linear gradient to 80% A+20% B; 2 min linear gradient to 75% A+25% B; 2 min linear gradient to 65% A+35% B; 8 min linear gradient to 50% A+50% B; 10 min 50% A+50% B; 10 min linear gradient to 20% A+80% B; 5 min 20% A+80% B; 15 min linear gradient to 98% A+2% B; 5 min 98% A+2% B.

Data set [9] can be described thus: Conversion in human serum (10%). Type of data set: in vitro ADME. Particulars: Human serum 10% in PBS, 37° C. The method, then:
as §2, §3, §4

Data set [10] addresses purified CD26 (Homo sapiens, UniProt P27487). Description: Conversion (substrate activity) by purified CD26. Type of data set: biochemical. Particulars: purified CD26 (1.5 mU in PBS), 37° C. How it is done: A variety of test compounds have been evaluated for their substrate activity against purified CD26, human serum (HS), and bovine serum (BS) in Eppendorf tubes. The 400 μL reaction mixture contained 50 μM of test compound in PBS (containing 0.1% DMSO). The reaction was started by the addition of purified CD26 (1.5 mU) or 20% of HS (in PBS) or BS (in PBS) at 37° C. At different time points, 100 μL was withdrawn from the reaction mixture, added to 200 μL methanol, and put on ice for ˜10 min. Then, the mixture was centrifuged at 13,000 rpm for 5 min at 4° C. and 250 μL of supernatant was analyzed by HPLC on a reverse phase RP-8 column, using following gradients: […]
as §3, §4

Data set [11] is described as follows: Oral bioavailability in mice: Compound 1 in plasma after single oral gavage. The data set is classed as in vivo. Particulars: for Compound 1 in plasma (area under the curve (HPLC)): dose equivalent to 25 mg/kg of Compound 1, relative peak area. From the text: The results of this study are shown in Table 1 below and in FIG. 1 of the accompanying drawings.
[12] abbreviates: Human alphaherpesvirus 3, HEL, 120 h, read-out: EC50 VZV TK+ OKA, Table 3b, plaque formation, 5 days.
Where [13] appears, read: Human alphaherpesvirus 3, HEL, 120 h, read-out: EC50 VZV TK− 07/1, Table 3b, plaque formation, 5 days.
Where [14] appears, read: Human alphaherpesvirus 3, HEL, 120 h, Table 3b, plaque formation.

purified CD26, sequence (P27487 whole entry, species assumed): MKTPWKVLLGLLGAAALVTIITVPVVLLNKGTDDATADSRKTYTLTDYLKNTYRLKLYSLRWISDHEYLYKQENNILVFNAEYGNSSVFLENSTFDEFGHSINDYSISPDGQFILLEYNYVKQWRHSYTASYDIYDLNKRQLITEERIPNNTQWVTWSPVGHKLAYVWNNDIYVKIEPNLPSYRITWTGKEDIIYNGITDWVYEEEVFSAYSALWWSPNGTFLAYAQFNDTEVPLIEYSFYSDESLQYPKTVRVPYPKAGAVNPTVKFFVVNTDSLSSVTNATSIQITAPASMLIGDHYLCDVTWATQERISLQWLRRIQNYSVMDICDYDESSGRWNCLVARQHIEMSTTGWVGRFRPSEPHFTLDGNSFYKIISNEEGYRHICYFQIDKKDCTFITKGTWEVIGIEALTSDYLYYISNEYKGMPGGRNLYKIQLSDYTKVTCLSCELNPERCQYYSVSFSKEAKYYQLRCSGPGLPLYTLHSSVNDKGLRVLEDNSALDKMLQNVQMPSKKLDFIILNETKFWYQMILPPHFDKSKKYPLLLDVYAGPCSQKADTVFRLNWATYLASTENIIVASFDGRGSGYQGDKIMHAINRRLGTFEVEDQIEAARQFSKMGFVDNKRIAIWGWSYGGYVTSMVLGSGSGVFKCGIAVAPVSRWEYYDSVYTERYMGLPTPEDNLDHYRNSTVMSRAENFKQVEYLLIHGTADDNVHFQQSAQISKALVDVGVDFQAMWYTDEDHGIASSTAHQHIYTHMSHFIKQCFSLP

On to `CCCCCc1ccc(-c2cc3cn([C@H]4CC(O)[C@@H](CO)O4)c(=O)nc3o2)cc1` (stereo partly drawn) [Compound 1, reference compound], for which the Solubility in water in data set [1] is 0.022 ± 0.007 mg/mL (≈ 55.2 µM). The solubility in [1] (thermodynamic from solid, read-out: water-solubility) turned out to be 22 µg/mL (≈ 55.2 µM).

With `CCCCCc1ccc(-c2cc3cn([C@H]4CC(OC(=O)C(N)C(C)C)[C@@H](CO)O4)c(=O)nc3o2)cc1` (stereo partly drawn) [Compound 3, 3-[2′-Deoxy-3′-O-valyl-β-D-ribofuranosyl]-6-(p-pentylphenyl)-2,3-dihydrofuro[2,3-d]pyrimidin-2-one, reference compound], in data set [2], the “cytotoxic or cytostatic (in words)” value was “Neither of them is cytotoxic or cytostatic”. The compound also displayed an MCC in data set [2] (human) of 20 µM. For the same compound, in data set [3], the CC50 was > 5 µM. Besides, the “antiviral activity in VZV-infected HEL cell cultures (in words)” value in data set [4] is “active”. Also, the figures for the EC50 in data set [5] (setting [12]), in data set [6] (setting [13]) and in data set [7] (setting [14]) were 7 nM, > 5 µM and 4 nM, respectively. Further, the “antiviral activity against VZV/TK− (in words)” value in data set [6] is given as “lose antiviral activity”.

For `CCCCCc1ccc(-c2cc3cn([C@H]4C[C@H](O)[C@@H](COC(=O)[C@@H](NC(=O)[C@@H]5CCCN5C(=O)[C@@H](N)C(C)C)C(C)C)O4)c(=O)nc3o2)cc1` [Compound 7], in data set [2], the CC50 is > 500 nM. For the same compound, the MCC in [2] is >1 µM. In addition, the “cytotoxic or cytostatic (in words)” value in data set [2] was “Neither of them is cytotoxic or cytostatic”. Further, the “Formation of hydrolysis products (%): Compound 1” value in data set [8] (0 hr) is on record as 0%; in data set [8] (1 hr), 20.3%; in data set [8] (4 hr), 44.8%; in data set [8] (20 hr) it was 74.4%; in data set [9] (0 hr) it was 0%; in data set [9] (1 hr) it was 57.6%. The “Formation of hydrolysis products (%): Compound 1” value in data set [9] (4 hr) came to 73.4%; in [9] (20 hr), 88.5%; in [10] (0 hr), 0%; in [10] (2 hr), 49.4%; in data set [10] (6 hr) it was 62.9%; in data set [10] (20 hr) it was 75.5%. Further, the “Formation of hydrolysis products (%): Compound 5” value worked out at 0% in data set [8] (0 hr); 19.9% in data set [8] (1 hr); 34.7% in data set [8] (4 hr); 21% in [8] (20 hr); 0% in data set [9] (0 hr); 11.4% in data set [9] (1 hr). In addition, the “Formation of hydrolysis products (%): Compound 5” value in data set [9] (4 hr) was 21.5%; in data set [9] (20 hr), 9.7%; in data set [10] (0 hr) it was 0%; in [10] (2 hr), 50.6%; in [10] (6 hr) it was 37.1%; in data set [10] (20 hr) it was 24.5%. Also, the “Formation of hydrolysis products (%): Compound 7” value in data set [8] (0 hr) was 100%; in [8] (1 hr) it was 59.8%; in data set [8] (4 hr), 20.4%; in data set [8] (20 hr) it was 3.3%; in data set [9] (0 hr), 100%; in data set [9] (1 hr) it was 31%. In addition, the “Formation of hydrolysis products (%): Compound 7” value in data set [9] (4 hr) turned out to be 5.0%; in data set [9] (20 hr), 1.8%; in [10] (0 hr) it was 100%; in data set [10] (2 hr), 0%; in data set [10] (6 hr), 0%; in data set [10] (20 hr) it was 0%. Besides, in [4], the “antiviral activity in VZV-infected HEL cell cultures (in words)” value was “found to be active”. For the same compound, in data set [1], the “water-solubility” value is given as 1.27 mg/mL. For the same compound, in data set [1], the “water-solubility relative to Compound 1” value is “more than 57 fold”. Also, the Solubility in water in [1] is 1.27 ± 0.05 mg/mL (≈ 1830 µM). Further, the EC50 was 12 nM in data set [5] (Table 3, plaque formation, 5 days, read-out: EC50 VZV TK+ OKA); > 1 µM in [6] (Table 3, plaque formation, 5 days, read-out: EC50 VZV TK− 07/1); 10 nM in data set [7] (Table 3, plaque formation). For the same compound, the “antiviral activity against VZV/TK− (in words)” value in data set [6] is given as “lose antiviral activity”. Also, the “Compound 1 in plasma (area under the curve (HPLC))” value came to 32 in data set [11] (15 min after oral gavage); 52 in data set [11] (30 min after oral gavage); 87 in [11] (45 min after oral gavage); 44 in [11] (60 min after oral gavage); 14 in data set [11] (120 min after oral gavage); 6.2 in [11] (180 min after oral gavage). In addition, the “increase of the oral bioavailability of Compound 1 (as estimated by the AUC values)” value in data set [11] (oral gavage, versus dosing Compound 1) is given as “approximately 12 fold”.

As for `CCCCCc1ccc(-c2cc3cn(C4CC(OC(=O)C(NC(=O)C5CCCN5C(=O)C(N)C(C)C)C(C)C)C(CO)O4)c(=O)nc3o2)cc1` [Compound 9, 3-[2′-Deoxy-3′-O-(valyl-prolyl-valyl)-β-D-ribofuranosyl]-6-(p-pentylphenyl)-2,3-dihydrofuro[2,3-d]pyrimidin-2-one], the “cytotoxic or cytostatic (in words)” value in [2] is reported as “Neither of them is cytotoxic or cytostatic”. The MCC in data set [2] (human) was 20 µM. Further, in data set [3], the CC50 was > 5 µM. Further, the “antiviral activity in VZV-infected HEL cell cultures (in words)” value in data set [4] was “found to be active”. The EC50 is 17 nM in [5] (setting [12]), > 5 µM in data set [6] (setting [13]) and 16 nM in data set [7] (setting [14]). Besides, in data set [6], the “antiviral activity against VZV/TK− (in words)” value is reported as “lose antiviral activity”.

A word on the solubility: it is the dissolved amount per volume that the medium holds. One may read the CC50 as the concentration giving 50% cytotoxicity.
